In one experiment the test system is ACO and mAP2 mRNA. In words: Tissue-specific gene expression (ACO, mAP2) by RT-PCR in rats fed experimental diets. Conditions: diet 14 days, 1.5% CLA or 0.2% troglitazone, vs control diet. In kind it is in vivo, rat. The protocol: Male Zucker fatty (fa/fa) rats and lean littermates (wt) were obtained at six weeks of age from Genetic Models, Inc. (Indianapolis, Ind.). Because the primary aim of the study was to determine the ability of CLA to improve insulin action and prevent the onset of diabetes, all rats were determined normoglycemic prior to assignment to experimental treatments. (The diets are discussed in the subsequent section). After maintaining rats on experimental diets for 14 days, rats were euthanized by CO2 and cervical dislocation and tissues collected, weighed and frozen. RT-PCR was performed as described above. The genes utilized as markers of tissue and subtype specific PPAR activation included Acyl-CoA Oxidase (ACO; found in the liver and induced by PPARα activation), Adipocyte Specific Protein (mAP2; found in adipose tissue and induced by activation of PPARγ) and ACO in the muscle (induced by PPARβ). […] Body weights were measured twice weekly and average food consumption estimated by measuring differences in weight of freshly supplied diet and diet remaining in feeders two days later. […]

Another experiment concerns Zucker rats. The experiment in a line: Plasma insulin, triglyceride and free fatty acid concentrations in Zucker rats. In kind it is in vivo, rat. Conditions: fed, diets 14 days. An excerpt: Diet components were obtained from Dyets, Inc. (Bethlehem, Pa.) and the CLA isomeric mixture (90% pure mixture) from PharmaNutrients, Chicago, Ill. The CLA mixture had the following isomeric distribution: 42% of a composition including cis,trans-9,11 and trans,cis-9,11-octadecadienoic acid; 43.5% trans,cis-10,12-octadecadienoic acid; 1% cis,cis-9,11-octadecadienoic acid; 1% cis,cis-10,12-octadecadienoic acid; and 1.5% of a composition including trans,trans-9,11-octadecadienoic acid and trans,trans-10,12-octadecadienoic acid, all on a weight percent basis. The CLA mixture also included, on a weight percent basis, about 0.5% linoleate, about 5.5% oleate and about 5% other lipids as discussed above. The thiazolidinedione, TZD (Rezulin™, Parke-Davis, Ann Arbor, MI), was used as a positive control for anti-diabetic activity in these studies. Male Zucker fatty (fa/fa) rats and lean littermates (wt) were obtained at six weeks of age from Genetic Models, Inc. (Indianapolis, Ind.). Because the primary aim of the study was to determine the ability of CLA to improve insulin action and prevent the onset of diabetes, all rats were determined normoglycemic prior to assignment to experimental treatments. After maintaining rats on experimental diets for 14 days, rats were euthanized by CO2 and cervical dislocation and blood collected and immediately analyzed for post-prandial glucose concentrations (see below) or placed into heparinized test tubes for plasma analyses as described below. Epididymal fat pads and livers were harvested and weighed. An aliquot of the epididymal fat pad was isolated into buffered saline for glucose transport analyses and the remaining epididymal fat pad and gastrocnemius muscle were isolated, immediately frozen in liquid nitrogen and stored at −80° C. until mRNA and protein analyses were performed. Three isocaloric, experimental diets were formulated according to a modified AIN-76 mixture containing 6.5% (by weight) fat (diet described in American Institute of Nutrition: Report of the American Institute of Nutrition Ad Hoc Committee on Standards for Nutritional Studies, J. Nutr. 107 1340–1348 (1977) but includes 6.5% by weight fat instead of 5% by weight fat). […] Body weights were measured twice weekly and average food consumption estimated by measuring differences in weight of freshly supplied diet and diet remaining in feeders two days later. […] Blood glucose levels were determined using a One Touch glucose meter (Lifescan, Inc.). Plasma insulin levels were determined using commercially available radioimmunoassay kits (Linco Research, St. Charles, Mo.). Plasma nonesterified fatty acids were quantified using a calorimetric kit (Wako). Plasma triglyceride concentrations were determined using a commercially available kit (Sigma Diagnostics, St. Louis, Mo.).

Structures are written as SMILES. Marks after values point to notes of the source that are not given here.

With `Cc1c(C)c2c(c(C)c1O)CCC(C)(COc1ccc(CC3SC(=O)NC3=O)cc1)O2` (centres unmarked) [Troglitazone], the “ACO mRNA expression in tissue with predominantly PPARβ (muscle)” value with ACO and mAP2 mRNA is on record as “no effect”. Besides, the “Free Fatty Acids + S.D.” value in the experiment with Zucker rats (fa/fa rats) is 0.778 + 0.378^c mMol; in the experiment with Zucker rats (wt (lean) rats), 1.139 + 0.277^c mMol. Also, the “Plasma Triglycerides ± S.D.” value in the experiment on Zucker rats (fa/fa rats) was 57.08 ± 12.3^c mg/dl; with Zucker rats (wt (lean) rats), 61.1 ± 12.1^c mg/dl.

(Values after patent US7015249B1, “Methods and compositions for treating diabetes” (Purdue Research Foundation, priority 1997, dated 2006).)
